Measurements from patent US20040200144A1, “Plant growth regulator and a method of producing the regulator” (Dainichiseika Color & Chemicals Mfg. Co., Ltd., priority 2003, published 2004).

Key:
Format in all cases: in vivo
Poinsettia young plants = experiment: Dwarfing test of poinsettia young plant; conditions: for Plant Height / Dwarfing Rate: 100 ml per pot to nursery soil on 49th and 78th days, measured 93rd day; for Dwarfing Rate: vs comparative group
Protocol: 18.4 g of potassium hydroxide was dissolved in 400 ml of distilled water at 20° C., 50 g of cinnamic acid was added to the potassium hydroxide solution and dissolved by stirring, the resultant solution was diluted with distilled water until the total volume of solution was 500 ml, and thus a cinnamic acid aqueous solution (pH 8.8) was prepared in a concentration of 10%. The aqueous solution was further diluted with distilled water 33.3 times or 20 times, and thus a cinnamic acid aqueous solution in a concentration of 0.3% or 0.5% was prepared, respectively.
Poinsettia young plants with heights of about 10 cm were planted and fixed in pots (diameter of 14.5 cm and depth of 14.5 cm), and cultivated continuously. On the 49th and 78th days, 100 ml of 0.3% or 0.5% cinnamic acid aqueous solution prepared as described above was added to the nursery soil of each of 30 pots, and thus 0.3% cinnamic acid aqueous solution addition group and 0.5% cinnamic acid aqueous solution addition group were obtained. Further, 30 pots were prepared as a comparative group on which general watering was performed. The cultivation of young plants of each group was continued. On the 93rd day, the length from a surface of the soil of each cultivation pot to a head portion of the poinsettia young plant was measured, the dwarfing rate (%) was calculated using the following equation, and thus the dwarfing effect of cinnamic acid aqueous solution was examined (the same way was applied to following examples).
Dwarfing rate (%)=[(the plant height of the comparative group)−(the plant height of an addition group)/the plant height of the comparative group]×100
In addition, “plant height” in all the tables below was an average of heights from a surface of the soil of a pot used in each test to a head portion of the plant.

onion young plants = experiment: Dwarfing test of onion young plant; conditions: for Plant Height / Dwarfing Rate: 5 ml per cell on 5th day, measured 27th day; for Dwarfing Rate: vs comparative group
Protocol: (§1) 50 g of sodium tripolyphosphate was dissolved in 400 ml of distilled water at 80° C., 17.5 g of cinnamic acid was added to the sodium tripolyphosphate solution and dissolved by stirring, the resultant solution was diluted with distilled water until the total volume of solution was 500 ml, and thus 3.5% cinnamic acid aqueous solution (pH 6.5) was prepared. The aqueous solution was further diluted with distilled water 70 times or 17.5 times, and 0.05% cinnamic acid aqueous solution and 0.2% cinnamic acid aqueous solution were prepared, respectively.
(§2) Nursery soil for house use was filled into paper joint pots (each with 24 cells: 34×43×50 mm/cell), water was sufficiently given to the soil, and seeds of carrots were sowed. After seeding, the pot was placed in the same greenhouse as described above to sprout. Subsequently, on the 5th day, the cinnamic aqueous acid solutions were added to the nursery soil in the joint pots. One of the joint pots (24 cells) was prepared as a 0.05% cinnamic acid aqueous solution addition group, and 5 ml of the 0.05% cinnamic acid aqueous solution was added to the nursery soil of each cell. Another one of the join pots was prepared as a 0.2% cinnamic acid aqueous solution addition group, and 5 ml of the 0.2% cinnamic acid aqueous solution was added to the nursery soil of each cell. The other one of the joint pots was prepared as a comparative group in which 5 ml of water is added to each cell, instead of the cinnamic acid aqueous solution. Subsequently, the cultivation of carrot young plants in each group was continued under general conditions. On the 27th day, the heights of young plants in each group were measured, the dwarfing rate (%) was calculated, and the dwarfing effect of cinnamic acid aqueous solution on carrot young plants was examined. […].
In the same way as in Example 5 except that seeds of onion were sowed, the dwarfing effect of cinnamic acid aqueous solution on onion young plants was examined. […]

lettuce young plants = experiment: Dwarfing test of lettuce young plant; conditions: for Plant Height / Dwarfing Rate: 5 ml per cell on 5th day, measured 20th day; for Dwarfing Rate: vs comparative group
Protocol: as §1, §2
In the same way as in Example 5 except that seeds of lettuce were sowed, and that heights of young plants in each group were measured on the 20th day, the dwarfing effect of cinnamic acid aqueous solution on lettuce young plants was examined. […]

radish young plants = experiment: Dwarfing test of radish young plant; conditions: for Plant Height / Dwarfing Rate: 5 ml per cell on 4th day, measured 20th day; for Dwarfing Rate: vs comparative group
Protocol: as §1, §2
In the same way as in Example 12 except that seeds of radish were sowed, the dwarfing effect of cinnamic acid aqueous solution on radish young plants was examined. […]

turnip young plants = experiment: Dwarfing test of turnip young plant; conditions: for Plant Height / Dwarfing Rate: 5 ml per cell on 4th day, measured 20th day; for Dwarfing Rate: vs comparative group
Protocol: as §1, §2
In the same way as in Example 12 except that seeds of color turnip were sowed, the dwarfing effect of cinnamic acid aqueous solution on turnip young plants was examined. […]

tomato young plants = experiment: Dwarfing test of tomato young plant; conditions: for Plant Height / Dwarfing Rate: 5 ml per cell on 7th day, measured 20th day; for Dwarfing Rate: vs comparative group
Protocol: as §1, §2
In the same way as in Example 12 except that seeds of tomato were sowed, and that the cinnamic acid solutions were added to the nursery soil of the joint pot on the 7th day, the dwarfing effect of cinnamic acid aqueous solution on tomato young plants was examined. […]

newmelon young plants = experiment: Dwarfing test of newmelon young plant; conditions: for Plant Height / Dwarfing Rate: 5 ml per cell on 7th day, measured 27th day; for Dwarfing Rate: vs comparative group
Protocol: as §1, §2
In the same way as in Example 12 except that seeds of tomato were sowed, and that the cinnamic acid solutions were added to the nursery soil of the joint pot on the 7th day, the dwarfing effect of cinnamic acid aqueous solution on tomato young plants was examined. […].
In the same way as in Example 17 except that seeds of watermelon were sowed, and that plant heights were measured on the 27th day, the dwarfing effect of cinnamic acid aqueous solution on watermelon young plants was examined. […].
In the same way as in Example 21 except that seeds of newmelon were sowed, the dwarfing effect of cinnamic acid aqueous solution on newmelon young plants was examined. […]

O=C(O)C=Cc1ccccc1 [cinnamic acid]
Plant Height (Poinsettia young plants; 0.3% aqueous solution): 19.2 cm | Dwarfing Rate (Poinsettia young plants; 0.3% aqueous solution): 17.6% | Plant Height (Poinsettia young plants; 0.5% aqueous solution): 18.1 cm | Dwarfing Rate (Poinsettia young plants; 0.5% aqueous solution): 22.3% | dwarfing effect (Poinsettia young plants; poinsettia young plants, 0.3% and 0.5% aqueous solutions): effective | Plant Height (onion young plants; 0.05% aqueous solution): 8.0 cm | Dwarfing Rate (onion young plants; 0.05% aqueous solution): 15.8% | Plant Height (onion young plants; 0.2% aqueous solution): 7.5 cm | Dwarfing Rate (onion young plants; 0.2% aqueous solution): 21.1% | dwarfing effect (onion young plants; onion young plants, 0.05% and 0.2% aqueous solutions): effective | Plant Height (lettuce young plants; 0.05% aqueous solution): 5.7 cm | Dwarfing Rate (lettuce young plants; 0.05% aqueous solution): 6.6% | Plant Height (lettuce young plants; 0.2% aqueous solution): 4.3 cm | Dwarfing Rate (lettuce young plants; 0.2% aqueous solution): 29.5% | dwarfing effect (lettuce young plants; lettuce young plants, 0.05% and 0.2% aqueous solutions): effective | Plant Height (radish young plants; 0.05% aqueous solution): 8.1 cm | Dwarfing Rate (radish young plants; 0.05% aqueous solution): 11.0% | Plant Height (radish young plants; 0.2% aqueous solution): 7.1 cm | Dwarfing Rate (radish young plants; 0.2% aqueous solution): 22.0% | dwarfing effect (radish young plants; radish young plants, 0.05% and 0.2% aqueous solutions): effective | Plant Height (turnip young plants; 0.05% aqueous solution): 7.0 cm | Dwarfing Rate (turnip young plants; 0.05% aqueous solution): 23.1% | Plant Height (turnip young plants; 0.2% aqueous solution): 6.0 cm | Dwarfing Rate (turnip young plants; 0.2% aqueous solution): 34.1% | dwarfing effect (turnip young plants; turnip young plants, 0.05% and 0.2% aqueous solutions): effective | Plant Height (tomato young plants; 0.05% aqueous solution): 7.3 cm | Dwarfing Rate (tomato young plants; 0.05% aqueous solution): 20.7% | Plant Height (tomato young plants; 0.2% aqueous solution): 6.1 cm | Dwarfing Rate (tomato young plants; 0.2% aqueous solution): 33.7% | dwarfing effect (tomato young plants; tomato young plants, 0.05% and 0.2% aqueous solutions): effective | Plant Height (newmelon young plants; 0.05% aqueous solution): 7.3 cm | Dwarfing Rate (newmelon young plants; 0.05% aqueous solution): 6.4% | Plant Height (newmelon young plants; 0.2% aqueous solution): 4.9 cm | Dwarfing Rate (newmelon young plants; 0.2% aqueous solution): 37.2% | dwarfing effect (newmelon young plants; newmelon young plants, 0.05% and 0.2% aqueous solutions): effective
